# Where “and” joins values, the source holds several entries; their conditions need not be identical. Identical values can stand only once.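 Values below derive from 48-hour exposures of cells grown in 96-well plates, with endpoints linearly interpolated between the two concentrations bracketing the appropriate inhibition level. TGI marks complete inhibition of growth.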
# Assays:
# Assay in all cases: DTP human tumour cell line panel, 48 h
# [1] = system: HOP-18 NSCLC
# [2] = system: DMS 273 small cell lung
# [3] = system: SNB-78 CNS
# [4] = system: DLD-1 colon
# [5] = system: RXF-631 renal
# [6] = system: XF 498 CNS
# [7] = system: MDA-N
smiles,measurement,setting,value
CC(=O)NC1C(OCc2ccccc2)OC(CO)C(O)C1OC(C)C(=O)N[C@@H](C)C(=O)N[C@H](CCC(=O)OCCNc1c2ccccc2nc2cccc([N+](=O)[O-])c12)C(N)=O (stereo partly drawn),TGI,[1],0.00289 µM and 0.00803 µM
same,TGI,[2],0.00433 µM
same,TGI,[3],0.0809 µM
same,TGI,[4],0.0128 µM
Cn1c(=O)c(NC(=O)C(Cl)(Cl)Cl)nc2ccccc21,TGI,[5],> 100 µM
same,TGI,[2],> 100 µM
same,TGI,[6],> 100 µM
same,TGI,[3],> 100 µM
same,TGI,[4],> 100 µM
ON(Cc1ccccc1)C(=S)c1ccccc1,TGI,[5],> 100 µM
same,TGI,[7],> 100 µM
same,TGI,[1],> 100 µM
same,TGI,[2],> 76.5 µM
same,TGI,[6],> 100 µM
same,TGI,[3],> 100 µM
same,TGI,[4],> 100 µM
Nc1c(O)cc(N=C2C(=O)C=CC=C2C(=O)O)c(O)c1C(=O)O,TGI,[5],> 100 µM
same,TGI,[1],> 100 µM
same,TGI,[2],> 100 µM
same,TGI,[6],> 100 µM
same,TGI,[3],> 100 µM
same,TGI,[4],> 31.6 µM
CCOc1ccc2c(c1)[n+]([O-])c(-c1ccc(Br)cc1)c(N)[n+]2[O-],TGI,[5],> 100 µM
same,TGI,[1],> 100 µM
same,TGI,[2],> 100 µM
same,TGI,[6],> 100 µM
same,TGI,[3],> 100 µM
same,TGI,[4],> 100 µM
C[N+](C)(C)CC1CCC/C1=N/O (stereo not drawn),TGI,[1],> 100 µM
same,TGI,[2],> 100 µM
same,TGI,[6],3.1 µM
same,TGI,[3],> 100 µM
same,TGI,[4],> 100 µM
C#CC[N+](C)(CC#C)CC#C,TGI,[5],> 100 µM
same,TGI,[2],> 100 µM
same,TGI,[6],> 100 µM
same,TGI,[3],> 100 µM
same,TGI,[4],> 100 µM
NC1=NC(c2ccc(Cl)cc2)N(c2ccc(S(N)(=O)=O)cc2)C(N)=N1 (stereo not drawn),TGI,[7],> 100 µM
CC(=O)OC1=CC2=CC[C@H]3[C@@H]4CCC(=O)[C@@]4(C)CC(=O)[C@]3(S)[C@@]2(C)CC1,TGI,[7],> 100 µM
COC(=O)C1=C(c2ccc(OC)c(OC)c2)OC(c2cc(OC)c(OC)c(OC)c2)C1 (stereo not drawn),TGI,[5],> 100 µM
same,TGI,[1],> 100 µM
same,TGI,[2],> 100 µM
same,TGI,[6],> 100 µM
same,TGI,[3],68.5 µM
same,TGI,[4],> 100 µM
COc1cccc(CSCC(=O)O)c1,TGI,[7],> 100 µM
COC(=O)C1OC2(CCCC3CC32)O[C@H]1C(=O)OC (stereo partly drawn),TGI,[7],> 100 µM
CN(COC(=O)c1ccccc1)c1nc(N(C)COC(=O)c2ccccc2)nc(N(C)COC(=O)c2ccccc2)n1,TGI,[7],> 100 µM
COC(=O)/C(=N/Nc1cccc(Cl)c1)C(C(=O)C(=O)Nc1cccc(Cl)c1C)c1nc2ccccc2nc1C (stereo not drawn),TGI,[4],> 100 µM
CN(C)c1nnnn1-c1c(N)n(C)c(=O)n(C)c1=O,TGI,[5],> 100 µM
same,TGI,[1],> 100 µM
same,TGI,[2],> 100 µM
same,TGI,[6],> 100 µM
same,TGI,[3],> 100 µM
same,TGI,[4],> 100 µM
Cc1noc2c1C(=O)CCC2,TGI,[1],> 100 µM
same,TGI,[6],> 100 µM
same,TGI,[3],> 100 µM
same,TGI,[4],> 100 µM
Cc1cn(C2C=CC(CO)O2)c(=O)[nH]c1=O (stereo not drawn),TGI,[7],> 1000 µM
COC(=O)C(=CNC(N)=O)C(=O)OC,TGI,[7],> 100 µM
CS(=O)(=O)NNS(=O)(=O)c1ccccc1,TGI,[2],> 100 µM
same,TGI,[6],> 100 µM
same,TGI,[4],> 100 µM
COC(=O)CCC1CCc2c(OC)ccc(OC)c2C1=O (stereo not drawn),TGI,[2],> 100 µM
same,TGI,[3],> 100 µM
same,TGI,[4],> 100 µM
CN=C(NC(=S)N(C)C)N(C)C,TGI,[5],> 100 µM
same,TGI,[1],> 100 µM
same,TGI,[2],> 100 µM
same,TGI,[6],> 100 µM
same,TGI,[3],> 100 µM
same,TGI,[4],> 100 µM
O=C(O)C1CCCCC1c1c2ccc(=O)c(O)c-2oc2c(O)c(O)ccc12 (stereo not drawn),TGI,[7],44.9 µM
Cc1nnc2c3nnc(C)n3c3ccccc3n12,TGI,[2],> 100 µM
same,TGI,[6],> 100 µM
same,TGI,[3],> 100 µM
same,TGI,[4],> 100 µM
O=[N+]([O-])c1ccc(C2CC(c3ccccc3Cl)=Nc3ccccc3S2=O)cc1 (stereo not drawn),TGI,[5],21.5 µM
same,TGI,[7],21.8 µM
same,TGI,[1],39.5 µM
same,TGI,[2],8.87 µM
same,TGI,[6],18.4 µM
same,TGI,[3],56 µM
same,TGI,[4],4.1 µM
N#CC1CCCCOCCOCCOCCOCCOCCCCCC1=O (stereo not drawn),TGI,[5],> 100 µM
same,TGI,[1],> 100 µM
same,TGI,[2],> 100 µM
same,TGI,[3],> 100 µM
same,TGI,[4],> 100 µM
Cc1cc(-c2ccccc2)nc(Nc2nc3ccccc3o2)n1,TGI,[6],> 100 µM
same,TGI,[3],> 100 µM
same,TGI,[4],> 100 µM
O=[N+]([O-])c1ccc(Cl)c(C2CC(c3cccc4ccccc34)=Nc3ccccc3S2)c1 (stereo not drawn),TGI,[5],> 100 µM
same,TGI,[1],> 100 µM
same,TGI,[2],> 100 µM
same,TGI,[3],> 66.7 µM
same,TGI,[4],28.1 µM
Clc1ccc(-c2nnc(-c3cccc4ccccc34)o2)cc1Cl,TGI,[7],> 100 µM
Cc1ccc(NC(=O)C2C(=O)N(c3ccc(C)c(C)c3)C(=O)/C2=N\NC(N)=O)cc1C (stereo not drawn),TGI,[1],> 100 µM
same,TGI,[6],> 100 µM
same,TGI,[3],> 100 µM
same,TGI,[4],> 100 µM
CCCCCCCCCCCCCCCCNCCCN(C)CCCN,TGI,[2],34.8 µM
same,TGI,[3],34.4 µM
same,TGI,[4],36 µM
O=[N+]([O-])c1ccc(-c2noc(-c3ccc(Cl)cc3)c2C2=NCCN2)cc1,TGI,[1],> 100 µM
same,TGI,[6],> 100 µM
same,TGI,[3],> 100 µM
same,TGI,[4],> 100 µM
COc1cc(OC)c2nccc(NCCCN(C)C)c2c1[N+](=O)[O-],TGI,[7],> 100 µM
Cc1cccc(C(C)C)c1N1C(=O)C(=O)C(c2nc3ccccc3o2)C(=O)C1=O,TGI,[5],> 100 µM
same,TGI,[1],> 100 µM
same,TGI,[2],> 100 µM
same,TGI,[6],69.1 µM
same,TGI,[3],> 100 µM
same,TGI,[4],> 100 µM
O=C(CCC(=O)Nc1ccc(Cl)c(Cl)c1)CC(=O)c1ccc(F)cc1,TGI,[5],> 100 µM
same,TGI,[1],> 100 µM
same,TGI,[2],> 100 µM
same,TGI,[3],> 100 µM
same,TGI,[4],> 100 µM
O=C(CSc1ncn[nH]1)C[P+](c1ccccc1)(c1ccccc1)c1ccccc1,TGI,[2],> 100 µM
same,TGI,[6],> 100 µM
same,TGI,[3],> 100 µM
same,TGI,[4],> 100 µM
CN(C)c1ccc(/C=C/c2ccc(/C=C/c3ccc(N(C)C)cc3)cc2)cc1,TGI,[5],> 100 µM
same,TGI,[1],> 100 µM
same,TGI,[2],> 100 µM
same,TGI,[3],> 100 µM
same,TGI,[4],> 100 µM
CCCCC(C)C(OC(=O)CC(CC(=O)O)C(=O)O)C(CC(C)CC(O)CCCCC(O)CC(O)C(C)N)OC(=O)CC(CC(=O)O)C(=O)O (stereo not drawn),TGI,[5],> 100 µM
same,TGI,[1],> 100 µM
same,TGI,[6],> 100 µM
same,TGI,[4],> 100 µM
O=C(CC1(O)C(=O)Nc2ccc(Br)cc21)c1ccc(Cl)cc1Cl (stereo not drawn),TGI,[5],> 100 µM
same,TGI,[3],> 100 µM
same,TGI,[4],> 100 µM
O=S(=O)(O)c1ccc(N=Nc2nc(C(F)(F)F)c(C(F)(F)F)[nH]2)cc1,TGI,[5],> 100 µM
same,TGI,[1],> 100 µM
same,TGI,[2],> 100 µM
same,TGI,[6],41.1 µM
same,TGI,[3],> 100 µM
same,TGI,[4],> 100 µM
O=C(O)C1CC2(C1)CC(C(=O)O)C2 (stereo not drawn),TGI,[7],> 100 µM
CN(C)C(=Nc1nc(=[N+](C)C)ss1)N(C)C,TGI,[5],> 100 µM
same,TGI,[1],> 100 µM
same,TGI,[2],> 100 µM
same,TGI,[6],> 100 µM
same,TGI,[4],> 100 µM
S=c1[nH]nc(Cc2ccccc2)c(=S)[nH]1,TGI,[5],> 100 µM
same,TGI,[7],> 100 µM
same,TGI,[1],> 100 µM
same,TGI,[2],> 100 µM
same,TGI,[6],> 100 µM
same,TGI,[3],> 100 µM
same,TGI,[4],> 100 µM

# Reference: PubChem BioAssay (NCI)
